# Measurements taken from ChEMBL document CHEMBL1201862, “PubChem BioAssay data set” (2004).
#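 Assay format: 96-well plates, 48-hour exposure. GI50 = concentration required for 50% inhibition of growth.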 Activity calls are given as the source filed them. Cut-off read from the data, not from the text of the source: active = GI50 up to about 1.1 µM and inactive = higher.
# Tests used:
# Test in all cases: NCI tumour cell line growth inhibition, 48 h
# [1] = tested on: COLO 205
# [2] = tested on: HCC 2998
# [3] = tested on: M14
# [4] = tested on: A549
# [5] = tested on: CCRF-CEM
# [6] = tested on: OVCAR-8
# [7] = tested on: CAKI-1
# [8] = tested on: SK-MEL-5
# [9] = tested on: HOP-92
# [10] = tested on: NCI-H23
# [11] = tested on: DU-145
# [12] = tested on: HCT-15
# [13] = tested on: SF-539
# [14] = tested on: RPMI-8226
# [15] = tested on: T47D
# [16] = tested on: HL-60
# [17] = tested on: SN12C
# [18] = tested on: SK-OV-3
# [19] = tested on: U-251
# [20] = tested on: 786-0
# [21] = tested on: HOP-62
# [22] = tested on: SNB-75
# [23] = tested on: UACC-62
# [24] = tested on: UO-31
# [25] = tested on: A498
# [26] = tested on: SR
# [27] = tested on: NCI/ADR-RES
# [28] = tested on: SW-620
# [29] = tested on: IGROV-1
# [30] = tested on: OVCAR-3
# [31] = tested on: PC-3
# [32] = tested on: KM12
# [33] = tested on: Malme-3M
# [34] = tested on: K562
# [35] = tested on: MOLT-4
# [36] = tested on: MDA-MB-231
# [37] = tested on: LOX IMVI
# [38] = tested on: EKVX
# [39] = tested on: BT-549
# [40] = tested on: MDA-N
# [41] = tested on: NCI-H522
# [42] = tested on: SNB-19
# [43] = tested on: SF-268
# [44] = tested on: OVCAR-4
# [45] = tested on: HCT-116
# [46] = tested on: ACHN
# [47] = tested on: HT-29
# [48] = tested on: NCI-H460
# [49] = tested on: Hs-578T
# [50] = tested on: RXF 393
# [51] = tested on: TK-10
# [52] = tested on: MDA-MB-435
# [53] = tested on: SK-MEL-2
# [54] = tested on: SK-MEL-28
# [55] = tested on: SF-295
# [56] = tested on: NCI-H226
# [57] = tested on: UACC-257
# [58] = tested on: MCF7
# [59] = tested on: OVCAR-5
# [60] = tested on: DMS-273
# [61] = tested on: LXFL 529
# [62] = tested on: DLD-1
# [63] = tested on: SNB-78
# [64] = tested on: KM-20L2
structure (smiles),measurement,setting,value
COc1cccc(Nc2nc(N)nc(N)c2N)c1,GI50,[1],34.4 µM (inactive)
same,GI50,[2],98.2 µM (inactive)
same,GI50,[3],> 100 µM (inactive)
same,GI50,[4],> 100 µM (inactive)
same,GI50,[5],18.5 µM (inactive)
same,GI50,[6],65.2 µM (inactive)
same,GI50,[7],11.8 µM (inactive)
same,GI50,[8],30.3 µM (inactive)
same,GI50,[9],> 100 µM (inactive)
same,GI50,[10],33.4 µM (inactive)
same,GI50,[11],> 100 µM (inactive)
same,GI50,[12],36.9 µM
same,GI50,[13],40.8 µM (inactive)
same,GI50,[14],24.9 µM (inactive)
same,GI50,[15],35.6 µM (inactive)
same,GI50,[16],24.2 µM (inactive)
same,GI50,[17],20.1 µM (inactive)
same,GI50,[18],> 100 µM (inactive)
same,GI50,[19],76.9 µM (inactive)
same,GI50,[20],39.7 µM (inactive)
same,GI50,[21],29.3 µM (inactive)
same,GI50,[22],> 100 µM (inactive)
same,GI50,[23],58.2 µM (inactive)
same,GI50,[24],> 100 µM (inactive)
same,GI50,[25],> 100 µM (inactive)
same,GI50,[26],24 µM (inactive)
same,GI50,[27],> 100 µM (inactive)
same,GI50,[28],31.8 µM (inactive)
same,GI50,[29],35.1 µM (inactive)
same,GI50,[30],42.8 µM (inactive)
same,GI50,[31],99.8 µM (inactive)
same,GI50,[32],> 100 µM (inactive)
same,GI50,[33],> 100 µM (inactive)
same,GI50,[34],37.2 µM (inactive)
same,GI50,[35],15.4 µM (inactive)
same,GI50,[36],22.1 µM (inactive)
same,GI50,[37],21.4 µM (inactive)
same,GI50,[38],> 100 µM (inactive)
same,GI50,[39],35.7 µM (inactive)
same,GI50,[40],19.5 µM (inactive)
same,GI50,[41],30 µM (inactive)
same,GI50,[42],> 100 µM (inactive)
same,GI50,[43],> 100 µM (inactive)
same,GI50,[44],> 100 µM (inactive)
same,GI50,[45],22.2 µM (inactive)
same,GI50,[46],42.6 µM (inactive)
same,GI50,[47],40.7 µM (inactive)
same,GI50,[48],20 µM (inactive)
same,GI50,[49],> 100 µM (inactive)
same,GI50,[50],> 100 µM (inactive)
same,GI50,[51],> 100 µM (inactive)
same,GI50,[52],39.7 µM (inactive)
same,GI50,[53],> 100 µM (inactive)
same,GI50,[54],> 100 µM (inactive)
same,GI50,[55],29.7 µM (inactive)
same,GI50,[56],> 100 µM (inactive)
same,GI50,[57],> 100 µM (inactive)
same,GI50,[58],30.4 µM (inactive)
same,GI50,[59],> 100 µM (inactive)
CC(C)=CCC[C@@H](C)C1=C(O)C(=O)C(C)=C(N[C@H](C)c2ccccc2)C1=O,GI50,[1],4.33 µM (inactive)
same,GI50,[2],11.7 µM (inactive)
same,GI50,[3],5.41 µM (inactive)
same,GI50,[4],3.28 µM (inactive)
same,GI50,[5],0.923 µM (active)
same,GI50,[6],2.58 µM (inactive)
same,GI50,[7],4.11 µM (inactive)
same,GI50,[8],3.08 µM (inactive)
same,GI50,[9],6.14 µM (inactive)
same,GI50,[10],4.38 µM (inactive)
same,GI50,[11],6.53 µM (inactive)
same,GI50,[12],2.67 µM
same,GI50,[13],3.11 µM (inactive)
same,GI50,[14],6.31 µM (inactive)
same,GI50,[15],4.31 µM (inactive)
same,GI50,[16],2.21 µM (inactive)
same,GI50,[17],6.55 µM (inactive)
same,GI50,[18],3.84 µM (inactive)
same,GI50,[19],5.51 µM (inactive)
same,GI50,[20],3.66 µM (inactive)
same,GI50,[21],2.92 µM (inactive)
same,GI50,[22],2.53 µM (inactive)
same,GI50,[23],2.81 µM (inactive)
same,GI50,[24],4.27 µM (inactive)
same,GI50,[25],3.91 µM (inactive)
same,GI50,[26],22.3 µM (inactive)
same,GI50,[27],1.3 µM (inactive)
same,GI50,[28],5.92 µM (inactive)
same,GI50,[29],3.8 µM (inactive)
same,GI50,[30],5.36 µM (inactive)
same,GI50,[31],10.9 µM (inactive)
same,GI50,[32],6.3 µM (inactive)
same,GI50,[33],3.24 µM (inactive)
same,GI50,[34],6.64 µM (inactive)
same,GI50,[35],2.54 µM (inactive)
same,GI50,[36],7.35 µM (inactive)
same,GI50,[37],4.53 µM (inactive)
same,GI50,[38],5.08 µM (inactive)
same,GI50,[39],7.16 µM (inactive)
same,GI50,[40],7.23 µM (inactive)
same,GI50,[41],3.2 µM (inactive)
same,GI50,[42],6.07 µM (inactive)
same,GI50,[43],7.01 µM (inactive)
same,GI50,[44],5.75 µM (inactive)
same,GI50,[45],4.66 µM (inactive)
same,GI50,[46],3.72 µM (inactive)
same,GI50,[47],3.78 µM (inactive)
same,GI50,[48],2.75 µM (inactive)
same,GI50,[49],6.12 µM (inactive)
same,GI50,[50],6.71 µM (inactive)
same,GI50,[51],8.17 µM (inactive)
same,GI50,[52],7.1 µM (inactive)
same,GI50,[53],10.2 µM (inactive)
same,GI50,[54],6.76 µM (inactive)
same,GI50,[55],3.86 µM (inactive)
same,GI50,[56],4.27 µM (inactive)
same,GI50,[57],8.36 µM (inactive)
same,GI50,[58],3.64 µM (inactive)
same,GI50,[59],16.3 µM (inactive)
O=C(CC1C(=O)Nc2ccccc2[S+]1[O-])Nc1ccc(Cl)cc1 (stereo unspecified),GI50,[1],> 100 µM (inactive)
same,GI50,[2],79.6 µM (inactive)
same,GI50,[3],> 100 µM (inactive)
same,GI50,[4],> 100 µM (inactive)
same,GI50,[6],32.7 µM (inactive)
same,GI50,[7],> 100 µM (inactive)
same,GI50,[9],29 µM (inactive)
same,GI50,[10],35.2 µM (inactive)
same,GI50,[12],> 100 µM
same,GI50,[13],23.7 µM (inactive)
same,GI50,[14],> 100 µM (inactive)
same,GI50,[16],46.9 µM (inactive)
same,GI50,[17],72.4 µM (inactive)
same,GI50,[18],30.1 µM (inactive)
same,GI50,[19],35.7 µM (inactive)
same,GI50,[20],39 µM (inactive)
same,GI50,[21],33.7 µM (inactive)
same,GI50,[22],29.4 µM (inactive)
same,GI50,[23],37 µM (inactive)
same,GI50,[60],> 100 µM (inactive)
same,GI50,[24],35.1 µM (inactive)
same,GI50,[26],32.4 µM (inactive)
same,GI50,[61],91.8 µM (inactive)
same,GI50,[28],> 100 µM (inactive)
same,GI50,[29],41.3 µM (inactive)
same,GI50,[30],> 100 µM (inactive)
same,GI50,[32],> 100 µM (inactive)
same,GI50,[33],98.2 µM (inactive)
same,GI50,[34],> 100 µM (inactive)
same,GI50,[35],50.2 µM (inactive)
same,GI50,[37],> 100 µM (inactive)
same,GI50,[41],> 100 µM (inactive)
same,GI50,[42],93.3 µM (inactive)
same,GI50,[43],57.5 µM (inactive)
same,GI50,[44],49 µM (inactive)
same,GI50,[46],79.3 µM (inactive)
same,GI50,[47],> 100 µM (inactive)
same,GI50,[48],> 100 µM (inactive)
same,GI50,[51],> 100 µM (inactive)
same,GI50,[62],> 100 µM (inactive)
same,GI50,[53],> 100 µM (inactive)
same,GI50,[54],> 100 µM (inactive)
same,GI50,[63],53.7 µM (inactive)
same,GI50,[55],> 100 µM (inactive)
same,GI50,[56],> 100 µM (inactive)
same,GI50,[64],> 100 µM (inactive)
same,GI50,[57],69.5 µM (inactive)
same,GI50,[59],> 100 µM (inactive)
